# “And” between values parts separate entries of the source, which are not always exact repeats. Identical values can stand only once.
# Test system: Hep G2 hepatocarcinoma cells
# Experiment: Gene expression profiling of Hep G2 cells incubated with EPA, DHA, DPA (Illumina HT-12 bead arrays, Ingenuity iReport)
# [1] = EPA 100 μM, DHA 40 μM, DPA 11 μM
# [2] = top genes uniquely regulated by DPA (11 μM), 48 hours
structure (smiles),measurement,setting,value
"CC/C=C\C/C=C\C/C=C\C/C=C\C/C=C\C/C=C\CCC(=O)O [DHA, docosahexaenoic acid (C22:6 n-3)]",FOXO3 regulation (top genes uniquely regulated by DHA),DHA 40 μM,←
same,LSMD1 regulation (top genes uniquely regulated by DHA),DHA 40 μM,↑
same,MAP2K2 regulation (top genes uniquely regulated by DHA),DHA 40 μM,↓
same,MRPS34 regulation (top genes uniquely regulated by DHA),DHA 40 μM,↑
same,MT1X regulation (top genes uniquely regulated by DHA),DHA 40 μM,↑
same,NFKB1 regulation (top genes uniquely regulated by DHA),DHA 40 μM,←
same,SNORA62 regulation (top genes uniquely regulated by DHA),DHA 40 μM,↑
same,TNFSF11 regulation (top genes uniquely regulated by DHA),DHA 40 μM,←
same,ZNF652 regulation (top genes uniquely regulated by DHA),DHA 40 μM,↓
same,AHSA2 regulation (top genes commonly regulated),[1],↑
same,ALPP down-regulation: symbol for regulation in common,[1],¶(DPA)
same,ALPP regulation (top genes commonly regulated),[1],↓
same,CATSPER2 regulation (top genes commonly regulated),[1],↓
same,CCBE1 down-regulation: symbol for regulation in common,[1],¶(DPA)
same,CCBE regulation (top genes commonly regulated),[1],↓
same,CCL20 regulation (top genes commonly regulated),[1],↓
same,CDKN2AIPNL regulation (top genes commonly regulated),[1],↓
same,DDX51 down-regulation: symbol for regulation in common,[1],¶(DPA)
same,DDX51 regulation (top genes commonly regulated),[1],↓
same,HIST2H2AA3/HIST2H2AA4 up-regulation: symbol for regulation in common,[1],¶(EPA)
same,IL8 regulation (top genes commonly regulated),[1],↓
same,LOX up-regulation: symbol for regulation in common,[1],¶(EPA)
same,MST1 (includes EG: 15235) regulation (top genes commonly regulated),[1],↑
same,MST1 (includes EG: 15235) up-regulation: symbol for regulation in common,[1],¶(DPA)
"CC/C=C\C/C=C\C/C=C\C/C=C\C/C=C\CCCC(=O)O [EPA, eicosapentaenoic acid (C20:5 n-3)]",Beta-estradiol (inhibited) (top genes uniquely regulated by EPA),EPA 100 μM,←
same,GNAI3 regulation (top genes uniquely regulated by EPA),EPA 100 μM,↑
same,GOS2 regulation (top genes uniquely regulated by EPA),EPA 100 μM,↓
same,HERPUD1 regulation (top genes uniquely regulated by EPA),EPA 100 μM,↓
same,HIST2H2BE (includes others) regulation (top genes uniquely regulated by EPA),EPA 100 μM,↑
same,IER3 regulation (top genes uniquely regulated by EPA),EPA 100 μM,↓
same,IL2 (inhibited) (top genes uniquely regulated by EPA),EPA 100 μM,←
same,Lipopolysaccharide (inhibited) (top genes uniquely regulated by EPA),EPA 100 μM,←
same,MAT2A regulation (top genes uniquely regulated by EPA),EPA 100 μM,↑
same,NFKBIA regulation (top genes uniquely regulated by EPA),EPA 100 μM,↓
same,NFkB (complex) (inhibited) (top genes uniquely regulated by EPA),EPA 100 μM,←
same,RGS2 (includes EG: 19735) regulation (top genes uniquely regulated by EPA),EPA 100 μM,↑
same,AHSA2 regulation (top genes commonly regulated),[1],↑
same,CATSPER2 regulation (top genes commonly regulated),[1],↓
same,CCL20 regulation (top genes commonly regulated),[1],↓
same,CDKN2AIPNL regulation (top genes commonly regulated),[1],↓
same,HIST1H3A (includes others) up-regulation: symbol for regulation in common,[1],¶(DHA)
same,HIST2H2AA3/HIST2H2AA4 up-regulation: symbol for regulation in common,[1],¶(DHA)
same,IL8 regulation (top genes commonly regulated),[1],↓
same,LOX up-regulation: symbol for regulation in common,[1],¶(DHA)
same,RELB down-regulation: symbol for regulation in common,[1],¶(DPA)
same,RELB regulation (top genes commonly regulated),[1],↓
same,SRSF1 regulation (top genes commonly regulated),[1],↑
same,SRSF1 up-regulation: symbol for regulation in common,[1],¶(DPA)
"CC/C=C\C/C=C\C/C=C\C/C=C\C/C=C\CCCCCC(=O)O [DPA, docosapentaenoic acid (C22:5 n-3)]",number of genes involved in lipid metabolism responsive,1 μM DPA,2 genes
same,fewer genes affected at the lower than at the higher DPA concentration,1 μM vs 11 μM DPA,10 fold
same,increase in number of cardiovascular physiology genes affected,11 μM DPA vs 1 μM DPA,five-fold
same,number of lipid metabolism genes uniquely responding with statistically significant change in expression,"11 μM DPA, not 1 μM",22 genes
same,"number of genes uniquely responsive to the higher, but not the lower, DPA level",11 μM vs 1 μM DPA,310 genes and 300 genes
same,Cardiovascular: Total gene responses Low [DPA],DPA 1 μM,10
same,Inflammatory: Total gene responses Low [DPA],DPA 1 μM,18
same,Lipid metabolism: Total gene responses Low [DPA],DPA 1 μM,2
same,Cardiovascular: Gene responses in common,DPA 1 μM and 11 μM,6
same,Inflammatory: Gene responses in common,DPA 1 μM and 11 μM,4
same,Lipid metabolism: Gene responses in common,DPA 1 μM and 11 μM,0
same,APOA2 expression Fold Change,DPA 11 μM,−1.229
same,CD83 expression Fold Change,DPA 11 μM,−1.629
same,Cardiovascular: Total gene responses High [DPA],DPA 11 μM,51
same,DGAT1 expression Fold Change,DPA 11 μM,1.602
same,DNAJB1 expression Fold Change,DPA 11 μM,−1.489
same,FGFR3 expression Fold Change,DPA 11 μM,1.336
same,GNAI3 expression Fold Change,DPA 11 μM,1.455
same,IL8 expression Fold Change,DPA 11 μM,−2.535
same,IL18 (includes EG: 16173) expression Fold Change,DPA 11 μM,−1.347
same,IL32 expression Fold Change,DPA 11 μM,−1.629
same,IP6K1 expression Fold Change,DPA 11 μM,−1.242
same,IP6K2 expression Fold Change,DPA 11 μM,1.319
same,Inflammatory: Total gene responses High [DPA],DPA 11 μM,22
same,KIT expression Fold Change,DPA 11 μM,1.239
same,Lipid metabolism: Total gene responses High [DPA],DPA 11 μM,22
same,NFKB1 expression Fold Change,DPA 11 μM,−1.386
same,PDPN (includes EG: 10630) expression Fold Change,DPA 11 μM,−1.307
same,PGF expression Fold Change,DPA 11 μM,−1.284
same,PIP4K2B expression Fold Change,DPA 11 μM,−1.578
same,PLA2G16 expression Fold Change,DPA 11 μM,−1.337
same,PLIN5 expression Fold Change,DPA 11 μM,−1.371
same,PTGR2 expression Fold Change,DPA 11 μM,−1.416
same,PTX3 expression Fold Change,DPA 11 μM,−1.536
same,RGS2 (includes EG: 19735) expression Fold Change,DPA 11 μM,1.289
same,STIP1 expression Fold Change,DPA 11 μM,−1.469
same,ACADSB (short/branched chain acyl-CoA dehydrogenase) expression,DPA at 11 μM,upregulates
same,HMGCR expression,DPA at 11 μM,downregulated
same,SQLE expression,DPA at 11 μM,downregulated
same,AHSA2 regulation (top genes commonly regulated),[1],↑
same,AHSA2 up-regulation: symbol for regulation in common,[1],→♦
same,ALPP down-regulation: symbol for regulation in common,[1],¶(DHA)
same,ALPP regulation (top genes commonly regulated),[1],↓
same,CATSPER2 down-regulation: symbol for regulation in common,[1],→♦
same,CATSPER2 regulation (top genes commonly regulated),[1],↓
same,CCBE1 down-regulation: symbol for regulation in common,[1],¶(DHA)
same,CCBE regulation (top genes commonly regulated),[1],↓
same,CCL20 regulation (top genes commonly regulated),[1],↓
same,CDKN2AIPNL regulation (top genes commonly regulated),[1],↓
same,DDX51 down-regulation: symbol for regulation in common,[1],¶(DHA)
same,DDX51 regulation (top genes commonly regulated),[1],↓
same,IL8 regulation (top genes commonly regulated),[1],↓
same,MST1 (includes EG: 15235) regulation (top genes commonly regulated),[1],↑
same,MST1 (includes EG: 15235) up-regulation: symbol for regulation in common,[1],→¶(DHA)
same,RELB down-regulation: symbol for regulation in common,[1],¶(EPA)
same,RELB regulation (top genes commonly regulated),[1],↓
same,SRSF1 regulation (top genes commonly regulated),[1],↑
same,SRSF1 up-regulation: symbol for regulation in common,[1],→¶(EPA)
same,increase in number of genes involved in inflammatory pathways,printed: observed at 1 μM,only a minor increase
same,ALDOC gene regulation,[2],↑
same,AMT gene regulation,[2],↑
same,HNRNPA2B1 gene regulation,[2],↑
same,MGC16121 gene regulation,[2],↑
same,PRKCD gene regulation,[2],←
same,QRFPR gene regulation,[2],↓
same,RELA (inhibited) gene regulation,[2],←
same,SRSF5 gene regulation,[2],↑
same,STK36 gene regulation,[2],↑
same,TLR7 (inhibited) gene regulation,[2],←
same,TOP3B gene regulation,[2],↑
same,ZNF14 gene regulation,[2],↑
